Data from article PMC11949107, “Polyunsaturated fatty acids and their endocannabinoid-related metabolites activity at human TRPV1 and TRPA1 ion channels expressed in HEK-293 cells” (PeerJ, 2025).
Values joined by “and” are separate entries in the source; they are usually repeats but may differ in a detail not shown here. Equal entries are not always repeated.

Columns and labels:
human TRPV1 [1] = biological target: T1, human TRPV1 (Homo sapiens, UniProt Q8NER1); test: PMA (phorbol ester) potentiation of TRPV1 responses in HEK-293 TRPV1 cells; assay type: cell-based; parameters: key to Drugs alone, individual experiments: change in [Ca]i as % of pre-drug baseline; settings: for TRPV1 response after exposure to PMA: PMA 100 nM, 5 min pretreatment; for Drugs post-PMA, individual experiments: PUFA 10 µM after PMA 100 nM for 5 min, response to PMA alone subtracted; for Drugs alone, individual experiments: PUFA 10 µM without PMA pretreatment, TRPV1 cells
T1 construct: Life Technologies (cells); host or cells: Flp-In T-REx HEK-293
T1 sequence (Q8NER1 whole entry): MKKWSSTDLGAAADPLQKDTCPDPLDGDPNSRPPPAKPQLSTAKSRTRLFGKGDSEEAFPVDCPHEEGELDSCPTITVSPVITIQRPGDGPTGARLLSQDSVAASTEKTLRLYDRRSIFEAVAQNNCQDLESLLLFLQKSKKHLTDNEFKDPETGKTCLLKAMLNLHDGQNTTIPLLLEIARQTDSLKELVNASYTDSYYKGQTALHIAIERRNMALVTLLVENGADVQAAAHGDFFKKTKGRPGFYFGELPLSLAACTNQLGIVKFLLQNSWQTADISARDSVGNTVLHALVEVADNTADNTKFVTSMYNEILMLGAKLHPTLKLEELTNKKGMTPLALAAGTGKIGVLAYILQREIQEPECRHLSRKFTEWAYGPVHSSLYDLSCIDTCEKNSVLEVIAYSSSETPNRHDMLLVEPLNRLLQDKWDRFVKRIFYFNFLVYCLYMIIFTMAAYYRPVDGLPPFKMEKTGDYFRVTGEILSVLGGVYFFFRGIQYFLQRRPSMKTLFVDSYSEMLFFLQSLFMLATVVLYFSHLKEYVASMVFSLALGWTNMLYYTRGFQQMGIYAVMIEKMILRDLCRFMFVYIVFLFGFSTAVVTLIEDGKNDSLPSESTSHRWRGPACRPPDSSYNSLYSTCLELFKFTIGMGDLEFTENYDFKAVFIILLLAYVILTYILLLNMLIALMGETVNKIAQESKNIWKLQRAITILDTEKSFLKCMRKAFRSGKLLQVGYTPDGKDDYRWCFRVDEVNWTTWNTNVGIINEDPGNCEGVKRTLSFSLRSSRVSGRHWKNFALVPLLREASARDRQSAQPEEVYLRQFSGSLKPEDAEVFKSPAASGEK
Method: (§1) Intracellular calcium [Ca]i levels were assessed using the calcium 5 kit from Molecular Devices (# R8186, Sunnyvale, CA, USA) on a FlexStation 3 Microplate Reader (Molecular Devices, Sunnyvale, CA, USA). […] Probenecid (cat # 50027; Biotium) which helps to prevent expulsion of calcium indicator from the cells was added to a final concentration of 1.25 mM. 90 µL of the dye were loaded into each well of the plate and incubated for 1 h before reading in the FlexStation 3 at 37 °C. Fluorescence was recorded every 2 s (λ excitation = 485 nm, λ emission = 525 nm) for 5 min. After 1 min of baseline recording, 20 µL of the drug, dissolved in HBSS with 1% dimethyl sulfoxide (DMSO) (cat # D2650; Sigma-Aldrich, Melbourne, Australia) was added (final DMSO concentration was 0.1% in well).
We initially determined the effect of PMA, another phorbol ester that is a protein kinase C activator ([Jiang & Fleet, 2012]) on HEK-293 TRPV1 expressing cells.
(A) Response of HEK-293 TRPV1 expressing cells for PMA at various concentration. […] Drugs were added for the duration of the bar; (D) The effects of PUFAs after potentiation of TRPV1 by PMA. […] Changes in [Ca]i are expressed as percentage of the pre-drug baseline, with the response to PMA alone at 5 min subtracted. The black circles represent the response of PUFAs without PMA pretreatment while the pink circles represent the response of PUFAs after PMA potentiation.

human TRPV1 [2] = biological target: T1, human TRPV1; test: Pre-incubation with PUFAs or capsazepine, then capsaicin (10 nM) response in HEK-293 TRPV1 cells; assay type: cell-based; settings: for Effect of pre-treatment on the capsaicin response: 10 µM, 5 min exposure, then capsaicin 10 nM; for Post-capsaicin: response to subsequent capsaicin addition, individual experiments: capsaicin 10 nM after 5 min drug 10 µM; for Post-capsaicin: response to subsequent capsaicin addition, individual experiments / Pre-capsaicin: response to first drug, individual experiments: TRPV1 cells; for Pre-capsaicin: response to first drug, individual experiments: drug 10 µM for 5 min
Method: as §1, with “well). […]” for “well).”

human TRPA1 = biological target: T2, human TRPA1 (Homo sapiens, UniProt O75762); test: Calcium 5 dye [Ca]i assay in HEK-293 Flp-In T-REx cells expressing TRPA1 (agonist response); assay type: cell-based; settings: for Elevation of [Ca]i in HEK-293 TRPA1 cells compared with HEK-293 EV cells: 10 µM (cinnamaldehyde 300 µM); for Change of Ca5 fluorescence, Mean ± SEM, TRPA1 (10 µM): HEK-293 TRPA1 cells, percentage of predrug baseline; for TRPA1 activation at the highest concentration tested: 30 µM; for Emax at 30 µM: HEK293, read-out: Emax ± SEM % TRPA1 (30 µM), highest tested concentration (30 µM) or derived from concentration-response curves (cinnamaldehyde); for [Ca]i response (change in fluorescence), individual replicates: sheet Figure 4
T2 construct: Life Technologies (cells); host or cells: Flp-In T-REx HEK-293
T2 sequence (O75762 whole entry): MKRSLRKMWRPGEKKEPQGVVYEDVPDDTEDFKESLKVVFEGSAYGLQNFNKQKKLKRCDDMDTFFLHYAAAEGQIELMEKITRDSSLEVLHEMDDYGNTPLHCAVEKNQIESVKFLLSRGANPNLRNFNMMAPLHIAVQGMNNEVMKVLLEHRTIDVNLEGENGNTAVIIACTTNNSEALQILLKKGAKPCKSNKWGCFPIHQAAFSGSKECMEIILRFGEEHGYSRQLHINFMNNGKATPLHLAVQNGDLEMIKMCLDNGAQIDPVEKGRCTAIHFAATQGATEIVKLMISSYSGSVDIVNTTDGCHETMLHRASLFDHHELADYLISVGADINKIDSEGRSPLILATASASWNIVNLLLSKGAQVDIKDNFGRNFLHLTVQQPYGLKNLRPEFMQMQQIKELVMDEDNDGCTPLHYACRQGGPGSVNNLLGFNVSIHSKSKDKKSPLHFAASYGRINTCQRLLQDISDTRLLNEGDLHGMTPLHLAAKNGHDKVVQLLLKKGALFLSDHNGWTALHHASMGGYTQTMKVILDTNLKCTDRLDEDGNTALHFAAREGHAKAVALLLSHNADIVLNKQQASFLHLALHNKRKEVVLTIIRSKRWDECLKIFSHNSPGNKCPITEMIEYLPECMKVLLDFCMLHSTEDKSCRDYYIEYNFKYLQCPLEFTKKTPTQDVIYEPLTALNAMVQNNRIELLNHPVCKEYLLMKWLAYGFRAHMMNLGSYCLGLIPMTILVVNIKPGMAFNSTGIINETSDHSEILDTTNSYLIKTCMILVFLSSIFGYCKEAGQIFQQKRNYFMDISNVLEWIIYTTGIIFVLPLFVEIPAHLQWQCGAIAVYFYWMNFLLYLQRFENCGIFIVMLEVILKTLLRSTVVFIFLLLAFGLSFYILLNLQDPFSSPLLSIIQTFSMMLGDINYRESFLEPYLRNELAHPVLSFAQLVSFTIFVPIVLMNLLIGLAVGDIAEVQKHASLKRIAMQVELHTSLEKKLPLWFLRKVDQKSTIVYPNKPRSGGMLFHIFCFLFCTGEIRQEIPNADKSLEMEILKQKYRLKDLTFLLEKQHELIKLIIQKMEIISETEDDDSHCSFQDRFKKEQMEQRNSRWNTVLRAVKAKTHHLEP
Procedure, shortened: (§2)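 Tetracycline-induced (1 µg ml^−1, 4 h) HEK-293 T-REx cells loaded with Calcium 5 dye plus 1.25 mM probenecid for 1 h; agonist added after 1 min baseline (0.1% DMSO final), fluorescence (485/525 nm) read every 2 s for 5 min at 37 °C. Response as % change from baseline, solvent-subtracted; EC50/Emax from three-parameter logistic fit, given as pEC50.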

HEK-293 EV cells = test: Calcium 5 dye [Ca]i assay in HEK-293 empty vector (EV) cells; assay type: cell-based, human; settings: 10 µM; HEK-293 EV cells; percentage of predrug baseline
Procedure, shortened: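 Tetracycline at 1 µg ml^−1 was added 4 h before testing; cells were loaded with Calcium 5 dye for 1 h and read at 37 °C, with drug added after 1 min baseline (final 0.1% DMSO). The response was the % change from the 60 s baseline after solvent subtraction, and EC50/Emax came from a three-parameter logistic fit, reported as pEC50.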

human TRPV1 [3] = biological target: T1, human TRPV1; test: Calcium 5 dye [Ca]i assay in HEK-293 Flp-In T-REx cells expressing TRPV1 (agonist response); assay type: cell-based; settings: for Elevation of [Ca]i in HEK-293 TRPV1 cells compared with HEK-293 EV cells / Change of Ca5 fluorescence, Mean ± SEM, TRPV1 (10 µM): 10 µM; for Change of Ca5 fluorescence, Mean ± SEM, TRPV1 (10 µM): HEK-293 TRPV1 cells, percentage of predrug baseline; for Emax at 30 µM: HEK293, read-out: Emax ± SEM % TRPV1 (30 µM); for Change in Ca5 fluorescence, individual experiments (CRC raw data): TRPV1 cells
Procedure, shortened: as §2

SMILES | TRPV1 response after exposure to PMA (human TRPV1 [1]) | Drugs post-PMA, individual experiments (human TRPV1 [1]) | Drugs alone, individual experiments (human TRPV1 [1]) | Effect of pre-treatment on the capsaicin response (human TRPV1 [2]) | Post-capsaicin: response to subsequent capsaicin addition, individual experiments (human TRPV1 [2]) | Pre-capsaicin: response to first drug, individual experiments (human TRPV1 [2]) | Elevation of [Ca]i in HEK-293 TRPA1 cells compared with HEK-293 EV cells (human TRPA1) | Change of Ca5 fluorescence, Mean ± SEM, TRPA1 (10 µM) (human TRPA1) [%] | TRPA1 activation at the highest concentration tested (human TRPA1) | Emax at 30 µM (human TRPA1) [%] | [Ca]i response (change in fluorescence), individual replicates (human TRPA1; concentration -4.52288 (log)) | [Ca]i response (change in fluorescence), individual replicates (human TRPA1; concentration -5 (log)) | [Ca]i response (change in fluorescence), individual replicates (human TRPA1; concentration -5.52288 (log)) | [Ca]i response (change in fluorescence), individual replicates (human TRPA1; concentration -6 (log)) | [Ca]i response (change in fluorescence), individual replicates (human TRPA1; concentration -6.52288 (log)) | [Ca]i response (change in fluorescence), individual replicates (human TRPA1; concentration -7 (log)) | Change of Ca5 fluorescence, Mean ± SEM, EV (10 µM) (HEK-293 EV cells) [%] | Elevation of [Ca]i in HEK-293 TRPV1 cells compared with HEK-293 EV cells (human TRPV1 [3]) | Change of Ca5 fluorescence, Mean ± SEM, TRPV1 (10 µM) (human TRPV1 [3]) [%] | Emax at 30 µM (human TRPV1 [3]) [%] | also measured
CC/C=C\C/C=C\C/C=C\C/C=C\C/C=C\C/C=C\CCC(=O)O [DHA, docosahexaenoic acid] | only observed when a phorbol ester was present | 50.0906 and 48.3811 and 19.3352 and 66.6517 and 32.7216 and 44.0204 and 2.991 | 3.985 and 5.867 and 0 and 3.833 and 0.4866 and -0.286 and 0.9124 and 2.207 | did not affect | 262.478 and 230.552 and 119.965 and 325.766 and 236.554 and 370.087 | 15.3316 and 14.4172 and 9.221 and 4.601 and 11.1415 and 4.871 | did not produce a change | 129 ± 81 | activated TRPA1 | 408 ± 54 | 600.618 and 528.86 and 310.75 and 311.859 and 419.884 and 278.355 | 508.031 and 185.633 and 12.6409 and 8.196 and 18.5259 and 39.1466 | 5.528 and 1.551 and 4.973 and 2.123 | 3.48 and 2.006 and 3.985 and 2.738 and 3.1287 and 4.255 | 7.112 and 0.3749 and 2.033 and 5.1389 | 8.809 and 1.203 and 5.563 and 5.621 | 11 ± 2 | did not produce a notable change | 11 ± 2 | 29 ± 0.8 | Change in Ca5 fluorescence, individual experiments (CRC raw data) (human TRPV1 [3]; log concentration -4.52288 (M)): 30.4293 and 29.6434 and 28.2029 and 25.9718 and 28.1927 and 31.4702; Change in Ca5 fluorescence, individual experiments (CRC raw data) (human TRPV1 [3]; log concentration -5 (M)): 15.398 and 14.8517 and 2.207 and 13.9869 and 10.4035 and 11.2548; Change in Ca5 fluorescence, individual experiments (CRC raw data) (human TRPV1 [3]; log concentration -5.52288 (M)): 5.597 and 6.862 and 1.798 and 7.576; Change in Ca5 fluorescence, individual experiments (CRC raw data) (human TRPV1 [3]; log concentration -6 (M)): 1.539 and 8.081 and 1.374 and 8.45 and 6.148 and 5.676; Change in Ca5 fluorescence, individual experiments (CRC raw data) (human TRPV1 [3]; log concentration -6.52288 (M)): 0.111 and 3.665 and 0.7828 and 7.557; Change in Ca5 fluorescence, individual experiments (CRC raw data) (human TRPV1 [3]; log concentration -7 (M)): 8.793 and 7.902 and 1.12 and 9.145
CC/C=C\C/C=C\C/C=C\C/C=C\C/C=C\CCCC(=O)O [EPA, eicosapentaenoic acid] | only observed when a phorbol ester was present | 49.2015 and 39.5321 and 37.0404 and 36.9714 and 31.5302 and 32.9212 | 7.525 and 11.4184 and 9.766 and 10.5311 and 6.999 and 3.475 and 2.716 and 6.787 and 18.8884 | did not affect | 203.333 and 227.843 and 146.783 and 264.915 and 237.782 and 308.835 | 16.1107 and 14.1511 and 10.793 and 4.456 and 14.6833 and 13.0981 | did not produce a change | 58 ± 42 | activated TRPA1 | 232 ± 67 | 377.608 and 117.826 and 193.269 and 60.6586 and 155.376 and 486.394 | 17.4998 and 14.5924 and 9.889 and 12.76 and 22.7093 and 269.088 | 2.522 and 3.13 and 3.703 and 4.731 | 1.85 and 3.994 and 3.577 and 9.657 and 3.961 and 6.207 | 1.392 and 2.613 and 2.728 and 11.1533 | 0.08029 and 3.966 and 3.106 and 5.407 | 14 ± 5 | did not produce a notable change | 16 ± 5 | 34 ± 5 | Change in Ca5 fluorescence, individual experiments (CRC raw data) (human TRPV1 [3]; log concentration -4.52288 (M)): 41.79 and 35.9904 and 24.921 and 28.9142 and 55.0634 and 19.9806; Change in Ca5 fluorescence, individual experiments (CRC raw data) (human TRPV1 [3]; log concentration -5 (M)): 41.213 and 9.61 and 11.6653 and 7.673 and 15.0259 and 7.993; Change in Ca5 fluorescence, individual experiments (CRC raw data) (human TRPV1 [3]; log concentration -5.52288 (M)): 10.434 and 4.673 and 8.042 and 0.3072; Change in Ca5 fluorescence, individual experiments (CRC raw data) (human TRPV1 [3]; log concentration -6 (M)): 6.783 and 4.449 and 9.084 and 5.542 and 3.583 and -0.1759; Change in Ca5 fluorescence, individual experiments (CRC raw data) (human TRPV1 [3]; log concentration -6.52288 (M)): 4.775 and 5.179 and 8.63 and 0.2635; Change in Ca5 fluorescence, individual experiments (CRC raw data) (human TRPV1 [3]; log concentration -7 (M)): 4.257 and 3.906 and 5.164 and 0.2974
